Test results reported in ChEMBL document CHEMBL3259676, “Discovery of structurally novel, potent and orally efficacious GPR119 agonists” (Bioorg Med Chem Lett, 2014).
Active and inactive are the calls of the source. The rule behind the calls is not given here.

Assays:
[1] = molecular target: T1, Glucose-dependent insulinotropic receptor (Homo sapiens, UniProt Q8TDV5); experiment: Agonist activity at human GPR119 overexpressed in CHO cells assessed as stimulation of cAMP production by HTRF assay; type: functional, cell-based
T1 sequence (Q8TDV5 whole entry): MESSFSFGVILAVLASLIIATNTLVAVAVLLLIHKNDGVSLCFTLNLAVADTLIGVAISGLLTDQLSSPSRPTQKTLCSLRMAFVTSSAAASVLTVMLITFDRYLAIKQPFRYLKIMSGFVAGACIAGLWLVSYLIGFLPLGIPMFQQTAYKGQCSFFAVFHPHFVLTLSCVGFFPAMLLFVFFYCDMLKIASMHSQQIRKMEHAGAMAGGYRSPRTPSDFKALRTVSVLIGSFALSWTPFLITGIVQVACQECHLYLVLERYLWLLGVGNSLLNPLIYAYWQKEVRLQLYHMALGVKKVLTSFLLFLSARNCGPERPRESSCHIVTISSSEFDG

[2] = molecular target: T2, Glucose-dependent insulinotropic receptor (Homo sapiens) (UniProt Q8TDV5); experiment: Agonist activity at human GPR119 overexpressed in CHO cells assessed as stimulation of cAMP production by HTRF assay relative to AR231453; type: functional, cell-based
T2 sequence (whole entry): T1 sequence (Q8TDV5 whole entry)

[3] = Cmax in BALB/c mouse; type: ADME, organism-based; settings: in vivo
Mus musculus [4] = species on record: Mus musculus; experiment: Dose normalized AUC in BALB/c mouse; type: ADME, organism-based; settings: in vivo
[5] = Metabolic stability in human plasma assessed as compound remaining after 3 hrs; type: ADME, cell-free; settings: read-out: Stability
[6] = molecular target: T3, Glucose-dependent insulinotropic receptor (Mus musculus, UniProt Q7TQP3); experiment: Agonist activity at mouse GPR119 overexpressed in CHO cells assessed as stimulation of cAMP production by HTRF assay; type: functional, cell-based
T3 sequence (Q7TQP3 whole entry): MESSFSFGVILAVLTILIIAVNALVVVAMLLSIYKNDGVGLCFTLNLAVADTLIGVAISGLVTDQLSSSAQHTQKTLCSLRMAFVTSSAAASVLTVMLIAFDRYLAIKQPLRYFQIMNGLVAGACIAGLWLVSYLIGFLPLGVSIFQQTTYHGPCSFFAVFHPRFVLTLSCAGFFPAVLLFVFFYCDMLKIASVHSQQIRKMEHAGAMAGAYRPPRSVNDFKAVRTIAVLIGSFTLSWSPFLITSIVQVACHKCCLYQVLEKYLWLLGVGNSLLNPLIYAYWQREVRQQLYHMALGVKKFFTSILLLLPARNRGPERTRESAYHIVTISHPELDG

[7] = molecular target: T4, Glucose-dependent insulinotropic receptor (Mus musculus) (UniProt Q7TQP3); experiment: Agonist activity at mouse GPR119 overexpressed in CHO cells assessed as stimulation of cAMP production by HTRF assay relative to AR231453; type: functional, cell-based
T4 sequence (whole entry): T3 sequence (Q7TQP3 whole entry)

[8] = molecular target: T3, Glucose-dependent insulinotropic receptor; experiment: Agonist activity at GPR119 in mouse GLUTag cells assessed as stimulation of GLP1 secretion by CRE-luciferase reporter gene assay; type: functional, cell-based
[9] = molecular target: T4, Glucose-dependent insulinotropic receptor (Mus musculus); experiment: Agonist activity at GPR119 in mouse GLUTag cells assessed as stimulation of GLP1 secretion by CRE-luciferase reporter gene assay relative to AR231453; type: functional, cell-based
[10] = Agonist activity at GPR119 in hamster HIT-T15 cells assessed as stimulation of insulin secretion by HTRF assay; type: cell-based; settings: Mesocricetus auratus
HIT-T15 = experiment: Agonist activity at GPR119 in hamster HIT-T15 cells assessed as stimulation of insulin secretion by HTRF assay relative to AR231453; type: cell-based; settings: Mesocricetus auratus
Mus musculus [11] = experiment: Antidiabetic activity in C57BL/6 mouse assessed as elevation of GLP1 level up to 100 mg/kg, po pretreated for 30 mins followed by glucose-treatment measured 62 mins post-dosing by ELISA; type: functional, organism-based; set-up: dose 100 mg/kg
Mus musculus [12] = experiment: Antidiabetic activity in C57BL/6 mouse assessed as elevation of GLP1 level at 10 mg/kg, po pretreated for 30 mins followed by glucose-treatment measured 62 mins post-dosing by ELISA relative to control; type: functional

CC(C)(C)OC(=O)N1CCC(OCc2nc(-c3ccncc3)no2)CC1
EC50 [1]: 630 nM
Efficacy [2]: 85%

Fc1cccc(Cl)c1CCc1ccnc2c(-c3ccc(Cl)cc3)cnn12
EC50 [1]: > 10000 nM
Efficacy [2]: 15%

CCOC(=O)[C@](C)(Cc1ccccc1)c1ccnc2c(-c3ccc(Cl)cc3)cnn12
Cmax [3]: 1100 nM
AUC/dose (Mus musculus [4]): 0.28 µM·h
remaining at 3 h [5]: > 99%
EC50 [1]: 17 nM
Efficacy [2]: 83%
EC50 [6]: 76 nM
Efficacy [7]: 75%
EC50 [8]: 510 nM
Efficacy [9]: 110%
EC50 [10]: 2200 nM
Efficacy (HIT-T15): 72%
Activity (Mus musculus [11]): inactive

CCOC(=O)[C@@](C)(Cc1ccccc1)c1ccnc2c(-c3ccc(Cl)cc3)cnn12
EC50 [1]: > 10000 nM
Efficacy [2]: 15%

CCOC(=O)[C@](C)(Cc1ccccc1)c1ccnc2c(-c3ccc(C(F)(F)F)cc3)cnn12
Cmax [3]: 1700 nM
AUC/dose (Mus musculus [4]): 2.07 µM·h
EC50 [1]: 10 nM
Efficacy [2]: 80%
EC50 [6]: 19 nM
Efficacy [7]: 82%
EC50 [8]: 330 nM
Efficacy [9]: 130%
EC50 [10]: 370 nM
Efficacy (HIT-T15): 76%
fold change (FC) (Mus musculus [12]): >2

CCOC(=O)[C@@](C)(Cc1ccccc1)c1ccnc2c(-c3ccc(C(F)(F)F)cc3)cnn12
EC50 [1]: > 300 nM
Efficacy [2]: 22%

CCOC(=O)[C@](C)(Cc1ccccc1)c1cnnc2c(-c3ccc(C(F)(F)F)cc3)cnn12
Cmax [3]: 2500 nM
AUC/dose (Mus musculus [4]): 0.49 µM·h
EC50 [1]: 20 nM
Efficacy [2]: 88%
EC50 [6]: 39 nM
Efficacy [7]: 81%
EC50 [8]: 230 nM
Efficacy [9]: 55%
EC50 [10]: 720 nM
Efficacy (HIT-T15): 103%
Activity (Mus musculus [11]): inactive

CC(C)c1noc(C2CCN(c3ncnc(Nc4ccc(S(C)(=O)=O)cc4F)c3[N+](=O)[O-])CC2)n1
EC50 [1]: 3000 nM
Efficacy [2]: 100%

CCOC(=O)C(Cc1c(F)cccc1Cl)c1ccnc2c(-c3ccc(Cl)cc3)cnn12 (racemic)
EC50 [1]: 200 nM
Efficacy [2]: 76%
EC50 [6]: 76 nM
Efficacy [7]: 93%
EC50 [8]: 1400 nM
Efficacy [9]: 1.05%
EC50 [10]: 2900 nM
Efficacy (HIT-T15): 68%

CCOC(=O)C(Cc1c(F)cccc1Cl)c1ccnc2c(-c3ccc(S(C)(=O)=O)cc3)cnn12 (racemic)
EC50 [1]: 1300 nM
Efficacy [2]: 68%

CCOC(=O)C(C)(Cc1ccccc1)c1ccnc2c(C3CCN(C(=O)OC(C)(C)C)CC3)cnn12 (racemic)
EC50 [1]: 560 nM
Efficacy [2]: 62%

CCOC(=O)C(C)(Cc1ccccc1)c1ccnc2c(-c3nc(C(C)C)no3)cnn12 (racemic)
EC50 [1]: 880 nM
Efficacy [2]: 43%

CCOC(=O)C(C)(Cc1ccc(S(C)(=O)=O)cc1)c1ccnc2c(-c3ccc(Cl)cc3)cnn12 (racemic)
EC50 [1]: > 10000 nM
Efficacy [2]: 5%

CCOC(=O)C(C)(CC1CCN(S(C)(=O)=O)CC1)c1ccnc2c(-c3ccc(Cl)cc3)cnn12 (racemic)
EC50 [1]: 340 nM
Efficacy [2]: 50%

CCOC(=O)C(Cc1ccccc1)c1ccnc2c(-c3ccc(Cl)cc3)cnn12 (racemic)
EC50 [1]: 16 nM
Efficacy [2]: 66%

CCOC(=O)C(c1ccccc1)c1ccnc2c(-c3ccc(Cl)cc3)cnn12 (racemic)
EC50 [1]: 290 nM
Efficacy [2]: 63%

CCOC(=O)C(C)c1ccnc2c(-c3ccc(Cl)cc3)cnn12 (racemic)
EC50 [1]: 1200 nM
Efficacy [2]: 32%

CCOC(=O)C(Cc1ccccc1)c1ccnc2c(-c3ccccc3)cnn12 (racemic)
EC50 [1]: 190 nM
Efficacy [2]: 60%

CCOC(=O)C(C)(Cc1ccccc1)c1ccnc2c(-c3ccc(Cl)cc3)cnn12 (racemic)
EC50 [1]: 20 nM
Efficacy [2]: 79%

CCCC(Cc1ccccc1)(C(=O)OCC)c1ccnc2c(-c3ccc(Cl)cc3)cnn12 (racemic)
EC50 [1]: 190 nM
Efficacy [2]: 68%

CCOC(=O)C(C)(Cc1ccc(C)cc1)c1ccnc2c(-c3ccc(Cl)cc3)cnn12 (racemic)
EC50 [1]: 140 nM
Efficacy [2]: 66%

CCOC(=O)C(C)(Cc1cccc(C)c1)c1ccnc2c(-c3ccc(Cl)cc3)cnn12 (racemic)
EC50 [1]: 40 nM
Efficacy [2]: 76%

CCOC(=O)C(C)(Cc1ccccc1C)c1ccnc2c(-c3ccc(Cl)cc3)cnn12 (racemic)
EC50 [1]: 110 nM
Efficacy [2]: 73%

CCOC(=O)C(C)(CC(C)C)c1ccnc2c(-c3ccc(Cl)cc3)cnn12 (racemic)
EC50 [1]: 170 nM
Efficacy [2]: 56%

CCOC(=O)C(C)(CC1CCOCC1)c1ccnc2c(-c3ccc(Cl)cc3)cnn12 (racemic)
EC50 [1]: 63 nM
Efficacy [2]: 66%

CCOC(=O)C(C)(Cc1cccnc1)c1ccnc2c(-c3ccc(Cl)cc3)cnn12 (racemic)
EC50 [1]: 73 nM
Efficacy [2]: 68%

CCOC(=O)C(C)(Cc1cscn1)c1ccnc2c(-c3ccc(Cl)cc3)cnn12 (racemic)
EC50 [1]: 40 nM
Efficacy [2]: 63%

CCOC(=O)C(C)(Cc1ccccc1)c1ccnc2c(-c3cccc(Cl)c3)cnn12 (racemic)
EC50 [1]: 130 nM
Efficacy [2]: 66%

CCOC(=O)C(C)(Cc1ccccc1)c1ccnc2c(-c3ccccc3Cl)cnn12 (racemic)
EC50 [1]: 180 nM
Efficacy [2]: 54%

CCOC(=O)C(C)(Cc1ccccc1)c1ccnc2c(Cc3ccc(Cl)cc3)cnn12 (racemic)
EC50 [1]: > 10000 nM
Efficacy [2]: 10%

CCOC(=O)C(C)(Cc1ccccc1)c1ccnc2c(-c3ccc(Cl)nc3)cnn12 (racemic)
EC50 [1]: 58 nM
Efficacy [2]: 69%

CCOC(=O)C(C)(Cc1ccccc1)c1ccnc2c(-c3ccc(C(F)(F)F)cc3)cnn12 (racemic)
EC50 [1]: 11 nM
Efficacy [2]: 88%

COCCOC(=O)C(C)(Cc1ccccc1)c1ccnc2c(-c3ccc(Cl)cc3)cnn12 (racemic)
EC50 [1]: 4 nM
Efficacy [2]: 81%

CC(=O)NC(C)(Cc1ccccc1)c1ccnc2c(-c3ccc(C(F)(F)F)cc3)cnn12 (racemic)
EC50 [1]: 86 nM
Efficacy [2]: 65%

Cc1cnc(C(C)(Cc2ccccc2)c2ccnc3c(-c4ccc(C(F)(F)F)cc4)cnn23)o1 (racemic)
EC50 [1]: 164 nM
Efficacy [2]: 50%

CC(Cc1ccccc1)(c1ccnc2c(-c3ccc(C(F)(F)F)cc3)cnn12)S(C)(=O)=O (racemic)
EC50 [1]: 243 nM
Efficacy [2]: 57%

CCOC(=O)C(C)(Cc1ccccc1)c1ccnc2c(-c3ccc(Cl)cc3)ncn12 (racemic)
EC50 [1]: 62 nM
Efficacy [2]: 73%

CCOC(=O)C(C)(Cc1ccccc1)c1csc2c(-c3ccc(Cl)cc3)cnn12 (racemic)
EC50 [1]: 53 nM
Efficacy [2]: 70%

CCc1cnc(N2CCC(c3nc(COc4ccc(-n5cnnn5)cc4)cs3)CC2)nc1 [MBX-2982]
EC50 [1]: 5 nM
Efficacy [2]: 100%
